In paper PMC6274563, “Synthesis and In Vitro Anti Leishmania amazonensis Biological Screening of Morita-Baylis-Hillman Adducts Prepared from Eugenol, Thymol and Carvacrol” (Molecules, 2016):
Where two headings read alike, the source gives them in different places.

How the values were obtained:
[1] = system: promastigotes of Leishmania amazonensis (IFLA/BR/67/PH8); assay: Antileishmanial activity against promastigotes (MTT viability); type: cell-based
Description: The promastigote viabilities were determined by the ability of living cells to reduce the yellow MTT (3-(4,5-dimethylthiazol-2-yl)-2,5-diphenyltetrazolium bromide, a tetrazole) to purple formazan. Promastigote forms of Leishmania amazonensis (IFLA/BR/67/PH8) in the log phase of growth were incubated at 25 °C in 96-well cellular culture plates (TPP, Trasadingen, Switzerland) with 1 × 10^5 cells/well in 100 μL Schneider’s Drosophila medium supplemented with 20% of FBS in the presence or absence of different concentrations of compounds 4–15. The growth of promastigotes forms was evaluated simultaneously in the presence of Glucantime®, as reference drug. After 72 h of incubation, […] of a 5 mg·mL^−1 MTT solution was added. After 4 h of incubation at 25 °C, the formed product formazan was dissolved in […] of sodium dodecyl sulfate (SDS) at 10% for 24 h, and the absorbance was measured by spectrophotometry at a 545 nm wavelength. The percentage viability was calculated from the ratio of OD readings in the wells with compounds versus the wells without compounds × 100. The concentration that inhibited 50% of growth (IC50) was determined by regression analysis using the SPSS 8.0 software for Windows (IBM, New York, NY, USA). All experiments were performed at least three times, and each experiment was performed in triplicate. […]

[2] = system: human red blood cells; assay: Haemolytic assay; type: cell-based; settings: for SIrb (selectivity index on red blood cell) = HC50/IC50: HC50 on red blood cells / IC50 on L. amazonensis promastigotes
[3] = Leishmania amazonensis, promastigotes of L. amazonensis, 72 h incubation, MTT, average of three independent experiments ± standard error of the mean, read-out: IC50
[4] = haemolysis of human red blood cells

**Q.** With Cc1ccc(C(C)C)c(O)c1 [Compound 5, thymol] as the molecule, how does the IC50 [1, 3] read?
**A.** Its IC50 is 115 ± 5.77 µM.

**Q.** With C[C@@H]1[C@H](O)[C@@H](C)/C=C/C=C/C=C/C=C/C=C/C=C/C=C/[C@H](O[C@@H]2O[C@H](C)[C@@H](O)[C@H](N)[C@@H]2O)C[C@@H]2O[C@](O)(C[C@@H](O)C[C@@H](O)[C@H](O)CC[C@@H](O)C[C@@H](O)CC(=O)O[C@H]1C)C[C@H](O)[C@H]2C(=O)O [AmphotericinB, amphotericin B] as the molecule, how does the IC50 [1, 3] read?
**A.** The IC50 was 0.52 ± 0.03 µM.

**Q.** And the “SIrb (selectivity index on red blood cell) = HC50/IC50” value [2]?
**A.** Its value is 22.34.

**Q.** What about the HC50 [2, 4] of the same molecule?
**A.** Its HC50 is 11.61 µM.

**Q.** Which IC50 [1, 3] does the source give for C=CCc1ccc(OC(=O)C(=C)C(O)c2ccccc2[N+](=O)[O-])c(OC)c1 (stereo not shown) [Compound 9, 4-Allyl-2-methoxyphenyl 2-(hydroxy(2-nitrophenyl)methyl)acrylate] here?
**A.** Its IC50 is 4.71 ± 0.24 µM.

**Q.** What about the “SIrb (selectivity index on red blood cell) = HC50/IC50” value [2] of the same molecule?
**A.** The value was >84.92.

**Q.** What about the HC50 [2, 4] of the same molecule?
**A.** Its HC50 is >400 µM.

**Q.** How did the IC50 [1, 3] turn out when C=C(C(=O)Oc1cc(C(C)C)ccc1C)C(O)c1ccc([N+](=O)[O-])cc1 (stereo not shown) [Compound 13, 5-Isopropyl-2-methylphenyl 2-(hydroxy(4-nitrophenyl)methyl)acrylate] was run?
**A.** Its IC50 is 18.1 ± 0.9 µM.

**Q.** How did the IC50 [1, 3] turn out when C=C(C(=O)Oc1cc(C)ccc1C(C)C)C(O)c1cccc([N+](=O)[O-])c1 (stereo not shown) [Compound 11, 2-Isopropyl-5-methylphenyl 2-(hydroxy(3-nitrophenyl)methyl)acrylate] was run?
**A.** The IC50 was 10.6 ± 0.53 µM.

**Q.** With C=C(C(=O)Oc1cc(C)ccc1C(C)C)C(O)c1ccc([N+](=O)[O-])cc1 (stereo not shown) [Compound 10, 2-Isopropyl-5-methylphenyl 2-(hydroxy(4-nitrophenyl)methyl)acrylate] as the molecule, how does the IC50 [1, 3] read?
**A.** Its IC50 is 11.4 ± 0.57 µM.

**Q.** For C=C(C(=O)Oc1cc(C)ccc1C(C)C)C(O)c1ccccc1[N+](=O)[O-] (stereo not shown) [Compound 12, 2-Isopropyl-5-methylphenyl 2-(hydroxy(2-nitrophenyl)methyl)acrylate], which IC50 [1, 3] is on record?
**A.** Its IC50 is 5.91 ± 0.3 µM.

**Q.** For Cc1ccc(C(C)C)cc1O [Compound 6, carvacrol], which IC50 ([1]; Leishmania amazonensis, 72 h) is on record?
**A.** The IC50 was 138 ± 6.91 µM.

**Q.** Which IC50 [1, 3] does the source give for C=CCc1ccc(OC(=O)C(=C)C(O)c2cccc([N+](=O)[O-])c2)c(OC)c1 (stereo not shown) [Compound 8, 4-Allyl-2-methoxyphenyl-2-(hydroxy(3-nitrophenyl)methyl)acrylate] here?
**A.** Its IC50 is 10.5 ± 0.52 µM.

**Q.** What about the “SIrb (selectivity index on red blood cell) = HC50/IC50” value [2] of the same molecule?
**A.** The value was >38.13.

**Q.** What about the HC50 [2, 4] of the same molecule?
**A.** The HC50 was >400 µM.

**Q.** Which IC50 ([1]; promastigotes of L. amazonensis, 72 h incubation, MTT, average of three independent experiments ± standard error of the mean, read-out: IC50) does the source give for Glucantime^® here?
**A.** Its IC50 is 1630 ± 437 µM.

**Q.** And the HC50 [2]?
**A.** The HC50 was 1175.02 µM.

**Q.** Which IC50 ([1]; Leishmania amazonensis, 72 h) does the source give for C=CCc1ccc(O)c(OC)c1 [Compound 4, eugenol] here?
**A.** Its IC50 is 77.2 ± 1.77 µM.

**Q.** What about the “SIrb (selectivity index on red blood cell) = HC50/IC50” value [2] of the same molecule?
**A.** The value was >5.18.

**Q.** What about the HC50 [2, 4] of the same molecule?
**A.** The HC50 was >400 µM.

**Q.** C=C(C(=O)Oc1cc(C(C)C)ccc1C)C(O)c1cccc([N+](=O)[O-])c1 (stereo not shown) [Compound 14, 5-Isopropyl-2-methylphenyl 2-(hydroxy(3-nitrophenyl)methyl)acrylate] was tested. Which IC50 [1, 3] did it give?
**A.** Its IC50 is 22.3 ± 1.12 µM.

**Q.** For C=C(C(=O)Oc1cc(C(C)C)ccc1C)C(O)c1ccccc1[N+](=O)[O-] (stereo not shown) [Compound 15, 5-Isopropyl-2-methylphenyl 2-(hydroxy(2-nitrophenyl)methyl)acrylate], which IC50 [1, 3] is on record?
**A.** The IC50 was 13.6 ± 0.68 µM.

**Q.** With C=CCc1ccc(OC(=O)C(=C)C(O)c2ccc([N+](=O)[O-])cc2)c(OC)c1 (stereo not shown) [Compound 7, 4-Allyl-2-methoxyphenyl 2-(hydroxy(4-nitrophenyl)methyl)acrylate] as the molecule, how does the IC50 [1, 3] read?
**A.** Its IC50 is 8.75 ± 0.44 µM.

**Q.** What about the “SIrb (selectivity index on red blood cell) = HC50/IC50” value [2] of the same molecule?
**A.** The value was >45.71.

**Q.** And the HC50 [2, 4]?
**A.** The HC50 was >400 µM.
